# Results from ChEMBL document CHEMBL3046058, “Insecticidal activity of huperzine A from the New Zealand clubmoss, Lycopodium varium” (2002).
# How the values were obtained:
# Type in all cases: functional
# [1] = tested on: Tineola bisselliella; test: Insecticidal activity against larvae of Tineola bisselliella assessed as survival at 430 to 4500 ppm after 14 days
# [2] = tested on: Lucilia cuprina; test: Insecticidal activity against newly hatched larvae of Lucilia cuprina assessed as survival at 450 to 5130 ppm after 24 hr
# [3] = tested on: Eurhopalus australis; test: Insecticidal activity against larvae of Anthrenocerus australis assessed as survival after 14 days; conditions: 336 h, read-out: LD50 (the source's name)
# [4] = tested on: Tineola bisselliella; test: Insecticidal activity against larvae of Tineola bisselliella assessed as survival after 14 days; conditions: 336 h, read-out: LD50 (the source's name)
# [5] = tested on: Lucilia cuprina; test: Insecticidal activity against newly hatched larvae of Lucilia cuprina assessed as mortality after 24 hr; conditions: read-out: LD50 (the source's name)
# [6] = tested on: Eurhopalus australis; test: Antifeedant activity against larvae of Anthrenocerus australis assessed as amount of food intake at 63 ppm after 14 days (reference value: 55.5 mg)
# [7] = tested on: Eurhopalus australis; test: Insecticidal activity against larvae of Anthrenocerus australis assessed as survival at 125 to 4000 ppm after 14 days
structure (smiles),measurement,setting,value
C/C=C1\[C@H]2C=C(C)C[C@]1(N)c1ccc(=O)[nH]c1C2 [HUPERZINE A],Activity,[1],3%
same,Activity,[2],8%
same,LC50,[3],110 µg/mL
same,LC50,[4],630 µg/mL
same,LC50,[5],2380 µg/mL
same,Activity,[6],1.5 mg
same,Activity,[7],3%
